Data taken from the NIST ThermoML archive (doi:10.1016/j.jct.2012.11.014).
Numbers after ± are expanded uncertainties.

Assay: xn = mol fraction of the nth substance listed
Conditions: 101 kPa, Liquid; for speed of sound: Frequency=2 MHz, Linear variable-path acoustic interferometer; for viscosity: Oscillating disk viscometry; for mass density: Vibrating tube method

CC(=O)[O-].C[NH+](C)C [trimethylammonium acetate] + C[S+](C)[O-]
Conditions | mass density [kg/m3] | speed of sound [m/s] | viscosity [mPa·s]
298.15 K, x1 = 0.0159 | 1094.86 ± 1 | 1497 ± 3 | 2.03 ± 0.13
298.15 K, x1 = 0.0656 | 1093.33 ± 1 | 1501 ± 3 | 2.16 ± 0.13
298.15 K, x1 = 0.1182 | 1091.46 ± 1 | 1505 ± 3 | 2.29 ± 0.14
298.15 K, x1 = 0.1693 | 1089.27 ± 1 | 1509 ± 3 | 2.41 ± 0.15
298.15 K, x1 = 0.2333 | 1086.77 ± 1 | 1513 ± 3 | 2.55 ± 0.16
298.15 K, x1 = 0.2857 | 1084.45 ± 1 | 1517 ± 3 | 2.66 ± 0.16
298.15 K, x1 = 0.3408 | 1081.92 ± 1 | 1521 ± 3 | 2.77 ± 0.17
298.15 K, x1 = 0.3877 | 1079.63 ± 1 | 1524 ± 3 | 2.84 ± 0.18
298.15 K, x1 = 0.4358 | 1077.39 ± 1 | 1527 ± 3 | 2.91 ± 0.18
298.15 K, x1 = 0.5129 | 1073.63 ± 1 | 1532 ± 3 | 3 ± 0.19
298.15 K, x1 = 0.5506 | 1071.66 ± 1 | 1534 ± 3 | 3.03 ± 0.19
298.15 K, x1 = 0.5959 | 1069.68 ± 1 | 1536 ± 3 | 3.05 ± 0.19
298.15 K, x1 = 0.6852 | 1065.62 ± 1 | 1540 ± 3 | 3.08 ± 0.19
298.15 K, x1 = 0.7487 | 1062.84 ± 1 | 1542 ± 3 | 3.06 ± 0.19
298.15 K, x1 = 0.8156 | 1060.15 ± 1 | 1543 ± 3 | 3.01 ± 0.19
298.15 K, x1 = 0.8651 | 1058.27 ± 1 | 1544 ± 3 | 2.97 ± 0.19
298.15 K, x1 = 0.9231 | 1056.26 ± 1 | 1544 ± 3 | 2.89 ± 0.19
298.15 K, x1 = 0.961 | 1055.02 ± 1 | 1544 ± 3 | 2.84 ± 0.18
298.15 K, x1 = 1 | 1053.85 ± 1 | 1544 ± 3 | 2.76 ± 0.18
303.15 K, x1 = 0.0159 | 1092.06 ± 1 | 1473 ± 3 | 1.85 ± 0.12
303.15 K, x1 = 0.0656 | 1090.58 ± 1 | 1477 ± 3 | 1.99 ± 0.12
303.15 K, x1 = 0.1182 | 1088.73 ± 1 | 1480 ± 3 | 2.12 ± 0.13
303.15 K, x1 = 0.1693 | 1086.54 ± 1 | 1484 ± 3 | 2.23 ± 0.14
303.15 K, x1 = 0.2333 | 1083.95 ± 1 | 1488 ± 3 | 2.37 ± 0.15
303.15 K, x1 = 0.2857 | 1081.41 ± 1 | 1492 ± 3 | 2.47 ± 0.15
303.15 K, x1 = 0.3408 | 1078.78 ± 1 | 1495 ± 3 | 2.56 ± 0.16
303.15 K, x1 = 0.3877 | 1076.45 ± 1 | 1498 ± 3 | 2.63 ± 0.16
303.15 K, x1 = 0.4358 | 1074.03 ± 1 | 1501 ± 3 | 2.7 ± 0.17
303.15 K, x1 = 0.5129 | 1070.25 ± 1 | 1505 ± 3 | 2.78 ± 0.17
303.15 K, x1 = 0.5506 | 1068.52 ± 1 | 1507 ± 3 | 2.81 ± 0.17
303.15 K, x1 = 0.5959 | 1066.19 ± 1 | 1509 ± 3 | 2.83 ± 0.18
303.15 K, x1 = 0.6852 | 1062.02 ± 1 | 1512 ± 3 | 2.82 ± 0.18
303.15 K, x1 = 0.7487 | 1059.21 ± 1 | 1513 ± 3 | 2.8 ± 0.18
303.15 K, x1 = 0.8156 | 1056.44 ± 1 | 1514 ± 3 | 2.75 ± 0.17
303.15 K, x1 = 0.8651 | 1054.43 ± 1 | 1515 ± 3 | 2.65 ± 0.17
303.15 K, x1 = 0.9231 | 1052.36 ± 1 | 1515 ± 3 | 2.55 ± 0.17
303.15 K, x1 = 0.961 | 1051.09 ± 1 | 1515 ± 3 | 2.48 ± 0.16
303.15 K, x1 = 1 | 1049.87 ± 1 | 1514 ± 3 | 2.37 ± 0.16
308.15 K, x1 = 0.0159 | 1085.87 ± 1 | 1461 ± 3 | 1.71 ± 0.11
308.15 K, x1 = 0.0656 | 1084.72 ± 1 | 1465 ± 3 | 1.84 ± 0.11
308.15 K, x1 = 0.1182 | 1083.28 ± 1 | 1469 ± 3 | 1.96 ± 0.12
308.15 K, x1 = 0.1693 | 1081.2 ± 1 | 1473 ± 3 | 2.07 ± 0.13
308.15 K, x1 = 0.2333 | 1078.93 ± 1 | 1479 ± 3 | 2.2 ± 0.14
308.15 K, x1 = 0.2857 | 1076.51 ± 1 | 1483 ± 3 | 2.29 ± 0.14
308.15 K, x1 = 0.3408 | 1073.96 ± 1 | 1487 ± 3 | 2.39 ± 0.15
308.15 K, x1 = 0.3877 | 1071.75 ± 1 | 1491 ± 3 | 2.45 ± 0.15
308.15 K, x1 = 0.4358 | 1069.43 ± 1 | 1494 ± 3 | 2.51 ± 0.15
308.15 K, x1 = 0.5129 | 1065.68 ± 1 | 1499 ± 3 | 2.57 ± 0.16
308.15 K, x1 = 0.5506 | 1063.92 ± 1 | 1501 ± 3 | 2.59 ± 0.16
308.15 K, x1 = 0.5959 | 1061.71 ± 1 | 1504 ± 3 | 2.6 ± 0.16
308.15 K, x1 = 0.6852 | 1057.63 ± 1 | 1507 ± 3 | 2.59 ± 0.16
308.15 K, x1 = 0.7487 | 1054.92 ± 1 | 1509 ± 3 | 2.55 ± 0.16
308.15 K, x1 = 0.8156 | 1052.23 ± 1 | 1511 ± 3 | 2.49 ± 0.16
308.15 K, x1 = 0.8651 | 1050.25 ± 1 | 1511 ± 3 | 2.39 ± 0.15
308.15 K, x1 = 0.9231 | 1048.26 ± 1 | 1511 ± 3 | 2.27 ± 0.15
308.15 K, x1 = 0.961 | 1046.98 ± 1 | 1510 ± 3 | 2.19 ± 0.14
308.15 K, x1 = 1 | 1045.81 ± 1 | 1508 ± 3 | 2.06 ± 0.14
313.15 K, x1 = 0.0159 | 1081.32 ± 1 | 1443 ± 3 | 1.61 ± 0.1
313.15 K, x1 = 0.0656 | 1080.52 ± 1 | 1447 ± 3 | 1.73 ± 0.11
313.15 K, x1 = 0.1182 | 1079.21 ± 1 | 1452 ± 3 | 1.85 ± 0.11
313.15 K, x1 = 0.1693 | 1077.1 ± 1 | 1457 ± 3 | 1.96 ± 0.12
313.15 K, x1 = 0.2333 | 1074.98 ± 1 | 1463 ± 3 | 2.08 ± 0.13
313.15 K, x1 = 0.2857 | 1072.77 ± 1 | 1468 ± 3 | 2.16 ± 0.13
313.15 K, x1 = 0.3408 | 1070.09 ± 1 | 1472 ± 3 | 2.26 ± 0.14
313.15 K, x1 = 0.3877 | 1067.96 ± 1 | 1476 ± 3 | 2.31 ± 0.14
313.15 K, x1 = 0.4358 | 1065.48 ± 1 | 1481 ± 3 | 2.36 ± 0.15
313.15 K, x1 = 0.5129 | 1061.68 ± 1 | 1486 ± 3 | 2.41 ± 0.15
313.15 K, x1 = 0.5506 | 1060.02 ± 1 | 1489 ± 3 | 2.43 ± 0.15
313.15 K, x1 = 0.5959 | 1057.67 ± 1 | 1491 ± 3 | 2.44 ± 0.15
313.15 K, x1 = 0.6852 | 1053.56 ± 1 | 1495 ± 3 | 2.41 ± 0.15
313.15 K, x1 = 0.7487 | 1050.78 ± 1 | 1497 ± 3 | 2.37 ± 0.15
313.15 K, x1 = 0.8156 | 1048.06 ± 1 | 1497 ± 3 | 2.29 ± 0.14
313.15 K, x1 = 0.8651 | 1045.97 ± 1 | 1496 ± 3 | 2.18 ± 0.14
313.15 K, x1 = 0.9231 | 1044.14 ± 1 | 1495 ± 3 | 2.06 ± 0.13
313.15 K, x1 = 0.961 | 1042.88 ± 1 | 1493 ± 3 | 1.97 ± 0.13
313.15 K, x1 = 1 | 1041.7 ± 1 | 1490 ± 3 | 1.83 ± 0.12
